According to US7488732B2, “2-substituted pyrimidines” (BASF Aktiengesellschaft, priority 2003, dated 2009):

Legend:
Botrytis cinerea = assay: Activity against gray mold on capsicum leaves caused by Botrytis cinerea, protective application; assay type: in vivo; conditions: 250 ppm, protective spray on capsicum seedlings, rated after 5 days; untreated control 90% infection
Protocol: The active compounds were prepared as a stock solution with 0.25% by weight of active compound in acetone or DMSO. 1% by weight of the emulsifier Uniperol® EL (wetting agent having emulsifying and dispersing action based on ethoxylated alkylphenols) was added to this solution, and the solution was diluted with water to the desired concentration. 2. Activity against gray mold on capsicum leaves caused by Botrytis cinerea, protective application Capsicum seedlings of the cultivar “Neusiedler Ideal Elite” were, after 4-5 leaves had fully developed, sprayed to runoff point with an aqueous suspension of the active compound concentration given below. The next day, the treated plants were inoculated with a spore suspension of Botrytis cinerea comprising 1.7×10^6 spores/ml in a 2% aqueous biomalt solution. The test plants were subsequently placed in a climatized chamber at 22 to 24° C. and high atmospheric humidity. After 5 days, the extent of the fungal infection on the leaves could be determined visually in %.

Sphaerotheca fuliginea = assay: Activity against mildew on cucumber leaves caused by Sphaerotheca fuliginea, protective application; assay type: in vivo; conditions: 250 ppm, protective spray on cucumber seedlings, rated after 7 days; untreated control 90% infection
Protocol: The active compounds were prepared as a stock solution with 0.25% by weight of active compound in acetone or DMSO. 1% by weight of the emulsifier Uniperol® EL (wetting agent having emulsifying and dispersing action based on ethoxylated alkylphenols) was added to this solution, and the solution was diluted with water to the desired concentration. 3. Activity against mildew on cucumber leaves caused by Sphaerotheca fuliginea, protective application Leaves of potted cucumber seedlings of the cultivar “Chinese snake” were, at the cotyledon stage, sprayed to runoff point with an aqueous suspension of the active compound concentration given below. 20 hours after the spray coating had dried on, the plants were inoculated with an aqueous spore suspension of mildew of cucumber (Sphaerotheca fuliginea). The plants were then cultivated in a greenhouse at temperatures between 20 and 24° C. and 60 to 80% relative atmospheric humidity for 7 days. The extend of the mildew development was then determined visually in % infection of the coltyledon area.

Question: Which “infection (gray mold on leaves, determined visually in %)” value (Botrytis cinerea) does the source give for CCC(C)Cc1nc(C#N)nc(C)c1-c1c(F)cc(F)cc1F (centres unmarked) [I-4, 2-Cyano-4-methyl-5-(2,4,6-trifluorophenyl)-6-(2-methylbutyl)pyrimidine] here?
Answer: no infection

Question: And the “infection (mildew, determined visually in % infection of the cotyledon area)” value (Sphaerotheca fuliginea)?
Answer: no infection
